Laboratory results reported in patent US11241013B2, “Benzimidazole compounds as agricultural chemicals” (REDAG CROP PROTECTION LTD, priority 2017, dated 2022).

How the values were obtained:
Assay type in all cases: cell-based
Pythium ultimum = assay: Amended agar assay; design: key to % control Pythium ultimum 2 ppm / % control Pythium ultimum 20 ppm: D: no control detected at this concentration; C: up to 50% control; B: from 50 to 99% control; A: a control of greater than 99%, i.e. no detectable colony growth; details: for inhibition of growth at 20 ppm / inhibition of growth at 2 ppm: Globisporangium ultimum; for inhibition of growth at 20 ppm / % control Pythium ultimum 20 ppm / % control Pythium ultimum 2 ppm / inhibition of growth at 2 ppm: amended PDA agar, % reduction in colony growth vs control plate, 18° C.; for EC50 Pythium ultimum: amended agar assay, descending concentrations with 5-fold dilutions
Protocol: (§1) Testing was carried out on potato dextrose agar (PDA) amended with each compound at a test concentration of typically 20 ppm or 2 ppm. Amended agar was poured into three replicate 9 cm petri dishes. Each replicate dish was inoculated in the centre with a 5 mm agar plug taken from the leading edge of a culture aged between 2 and 7 days old; the age of the culture was dependant on the growth rate of the pathogen being tested. The test pathogens were Pythium ultimum and Phytophthora cinnamomi. Plates were incubated at 18° C. and the diameter of each colony measured before growth on the fastest growing plate reached the plate edge. This varied between 2 and 7 days depending on the growth rate of test pathogens. The % reduction in colony growth compared to the control plate was calculated for each pathogen. The results are provided in Table 1, in which D represents no control detected at this concentration; C represents up to 50% control; B from 50 to 99% control; and A represents a control of greater than 99%, i.e. no detectable colony growth.
(§2) Alternatively, or in addition, the same assay was conducted at descending test concentrations with 5-fold dilutions typically down to 0.032 ppm though sometimes as low as 0.00026 ppm, and an EC50 (the concentration at which 50% control would be achieved) was determined. The results are provided in Table 1 in which G represents no control detected at 20 ppm, F represents an EC50 of ≥20 ppm and E represents an EC50 of less than 20 ppm.

Phytophthora cinnamomi = assay: Amended agar assay; design: key to % control Phytophthora cinnamomi 20 ppm: D: no control detected at this concentration; C: up to 50% control; B: from 50 to 99% control; A: a control of greater than 99%, i.e. no detectable colony growth; details: for % control Phytophthora cinnamomi 20 ppm: amended PDA agar, % reduction in colony growth vs control plate, 18° C.; for EC50 Phytophthora spp. (marked *: Phytophthora cinnamomi): values marked *: amended agar assay, descending concentrations with 5-fold dilutions
Protocol: as §1, §2

Phytophthora cactorum [1] = assay: 96 well plate test; design: key: G: no control detected at 20 ppm; F: an EC50 of ≥20 ppm; an EC50 of less than 20 ppm; details: 96 well plate assay, agar amended to 20, 2, 0.2 and 0.02 ppm, assessed after 2 to 3 days
Protocol: (§3) Compounds were screened in 96 well plates with 10 compounds per plate. Each compound was screened using agar amended to 20, 2, 0.2 and 0.02 ppm, with proline at 50 and 10 ppm and 0.2% DMSO used as controls. Each test concentration and standard was replicated twice on a plate. Compounds were screened against Phytophthora cactorum. The agar used in the test is a 1% potato dextrose agar. 1000 spores/mL agar were added to the appropriate agar. A ×10 stock solution in 2% DMSO was produced for each dose i.e. 200, 20, 2 and 0.2 ppm, and 10 μl of this added to the appropriate wells on the plate. An equivalent amount of 2% DMSO and proline stock at 500 and 100 ppm were added for the controls. To each well 90 μl of the appropriate agar spore suspension was added to give the required final well concentrations. Plates were incubated at room temperature (18° C.) and assessed after 2 to 3 days. The amount of pathogen growth in each well was compared to the DMSO controls and an EC50 concentration was calculated. The results are provided in Table 1 in which H represents no control detected at 20 ppm, G represents no control detected at 2 ppm (where the highest test concentration in the assay was 2 ppm), F represents an EC50 of ≥20 ppm, E represents an EC50 of less than 20 ppm.

Phytophthora cactorum [2] = assay: 96 well plate test; design: key: H: no control detected at 20 ppm; G: no control detected at 2 ppm (where the highest test concentration in the assay was 2 ppm); F: an EC50 of ≥20 ppm; an EC50 of less than 20 ppm; details: 96 well plate assay, agar amended to 20, 2, 0.2 and 0.02 ppm, assessed after 2 to 3 days
Protocol: as §3

SMILES | EC50 Phytophthora spp. (Phytophthora cactorum) (Phytophthora cactorum [1]) | % control Pythium ultimum 2 ppm (Pythium ultimum) | inhibition of growth at 2 ppm (Pythium ultimum) [%] | further results
Cn1nnnc1-n1c(OCc2cccc(N)n2)nc2ccccc21 [Example 1, 6-(((1-(1-Methyl-1H-tetrazol-5-yl)-1H-benzo[d]imidazol-2-yl)oxy)methyl)pyridin-2-amine] |  |  |  | inhibition of growth at 20 ppm (Pythium ultimum): > 99%; % control Phytophthora cinnamomi 20 ppm (Phytophthora cinnamomi): B (from 50 to 99% control)
Cn1nnnc1-n1c(OCc2ncccn2)nc2ccccc21 [Example 2] | H |  |  | % control Pythium ultimum 20 ppm (Pythium ultimum): D
Cn1nnnc1-n1c(OCc2cnccn2)nc2ccccc21 [Example 5] | H | D |  | inhibition of growth at 20 ppm (Pythium ultimum): < 50%
Nc1cccc(COc2nc3ccccc3n2-c2ncncc2Cl)n1 [Example 9] | H |  | < 50 | 
COCCCOc1ccnc(COc2nc3ccccc3n2-c2nnnn2C)c1C [Example 15] | H |  | < 50 | inhibition of growth at 20 ppm (Pythium ultimum): > 99%
Cn1nnnc1-n1c(OCc2cccnc2)nc2ccccc21 [Example 18] | H |  | < 50 | 
Cn1nnnc1-n1c(OCc2ccncc2)nc2ccccc21 [Example 19] | H |  | < 50 | 
Cn1nnnc1-n1c(OCc2ccccn2)nc2ccc(F)cc21 [Example 20] |  |  |  | EC50 Pythium ultimum (Pythium ultimum): E (an EC50 of less than 20 ppm); EC50 Phytophthora spp. (marked *: Phytophthora cinnamomi) (Phytophthora cinnamomi): E* (an EC50 of less than 20 ppm)
Cn1nnnc1-n1c(OCc2cccnn2)nc2ccccc21 [Example 21] | H | D |  | inhibition of growth at 20 ppm (Pythium ultimum): 50 to 99%
Cn1nnnc1-n1c(OCCc2ccccn2)nc2ccccc21 [Example 25] | H |  | < 50 | 
Cc1cccnc1-n1c(OCc2ccccn2)nc2ccccc21 [Example 26] |  |  |  | % control Pythium ultimum 20 ppm (Pythium ultimum): D; % control Phytophthora cinnamomi 20 ppm (Phytophthora cinnamomi): D
c1ccc(COc2nc3ccccc3n2-c2ccccn2)nc1 [Example 27] |  |  |  | inhibition of growth at 20 ppm (Pythium ultimum): < 50%; % control Phytophthora cinnamomi 20 ppm (Phytophthora cinnamomi): D
Cn1nnnc1-n1c(OCc2cccc(N)n2)nc2ccc(Br)cc21 [Example 28] |  |  |  | EC50 Pythium ultimum (Pythium ultimum): E (an EC50 of less than 20 ppm); EC50 Phytophthora spp. (marked *: Phytophthora cinnamomi) (Phytophthora cinnamomi): E* (an EC50 of less than 20 ppm)
Cn1nnnc1-n1c(OCc2ccccn2)nc2ccccc21 [Example 29] |  |  |  | inhibition of growth at 20 ppm (Pythium ultimum): > 99%; EC50 Pythium ultimum (Pythium ultimum): E (an EC50 of less than 20 ppm); % control Phytophthora cinnamomi 20 ppm (Phytophthora cinnamomi): A (a control of greater than 99%, i.e. no detectable colony growth); EC50 Phytophthora spp. (marked *: Phytophthora cinnamomi) (Phytophthora cinnamomi): E* (an EC50 of less than 20 ppm)
Cn1nnnc1-n1c(OCc2cccc(NS(C)(=O)=O)n2)nc2ccccc21 [Example 31, N-(6-(((1-(1-Methyl-1H-tetrazol-5-yl)-1H-benzo[d]imidazol-2-yl)oxy)methyl)pyridin-2-yl)methanesulfonamide] |  |  |  | % control Pythium ultimum 20 ppm (Pythium ultimum): D; % control Phytophthora cinnamomi 20 ppm (Phytophthora cinnamomi): B (from 50 to 99% control)
Clc1cncnc1-c1c(OCc2ccccn2)[nH]c2ccccc12 [Example 33, 3-(5-Chloropyrimidin-4-yl)-2-(pyridin-2-ylmethoxy)-1H-indole] |  |  |  | inhibition of growth at 20 ppm (Pythium ultimum): < 50%; % control Phytophthora cinnamomi 20 ppm (Phytophthora cinnamomi): B (from 50 to 99% control)
Cn1nnnc1-n1c(OCc2cccc(NCc3cccnc3)n2)nc2ccccc21 [Example 41] |  | D |  | EC50 Phytophthora spp. (Phytophthora cactorum) (Phytophthora cactorum [2]): G
Cn1nnnc1-n1c(OCc2cccc(NCc3ccc(C#N)cc3)n2)nc2ccccc21 [Example 46] |  |  | 50 to 99 | EC50 Phytophthora spp. (Phytophthora cactorum) (Phytophthora cactorum [2]): G
Cn1nnnc1-n1c(OCc2ccc3ccccc3n2)nc2c(Cl)cccc21 [Example 67] |  |  | > 99 | EC50 Phytophthora spp. (Phytophthora cactorum) (Phytophthora cactorum [2]): G

The next lines start with results.

EC50 Phytophthora spp. (Phytophthora cactorum) (Phytophthora cactorum [1]) | SMILES | % control Pythium ultimum 2 ppm (Pythium ultimum) | inhibition of growth at 2 ppm (Pythium ultimum) [%] | further results
H | Cn1nnnc1-n1c(OCc2cccc(-c3ccccc3)n2)nc2ccccc21 [Example 32, 1-(1-Methyl-1H-tetrazol-5-yl)-2-((6-phenylpyridin-2-yl)methoxy)-1H-benzo[d]imidazole] |  | < 50 | 
H | Cn1nnnc1-n1c(COc2ccccn2)nc2ccccc21 [Example 34, 1-(1-Methyl-1H-tetrazol-5-yl)-2-((pyridin-2-yloxy)methyl)-1H-benzo[d]imidazole] | D |  | 
H | CN(C)c1cccc(COc2nc3ccccc3n2-c2nnnn2C)n1 [Example 49, N,N-Dimethyl-6-(((1-(1-methyl-1H-tetrazol-5-yl)-1H-benzo[d]imidazol-2-yl)oxy)methyl)pyridin-2-amine] | D |  | 
H | COc1cccc(COc2nc3ccccc3n2-c2nnnn2C)n1 [Example 52] | D |  | 
H | CC(C)CCOc1cccc(COc2nc3ccccc3n2-c2nnnn2C)n1 [Example 53] | D |  | 
H | CSc1cccc(COc2nc3ccccc3n2-c2nnnn2C)n1 [Example 54] | D |  | 
H | Cn1nnnc1-n1c(OCc2ccc(N)cn2)nc2ccccc21 [Example 57] | D |  | 
H | Cn1nnnc1-n1c(OCc2cccc(S(C)(=O)=O)n2)nc2ccccc21 [Example 58, 1-(1-Methyl-1H-tetrazol-5-yl)-2-((6-(methylsulfonyl)pyridin-2-yl)methoxy)-1H-benzo[d]imidazole] | D |  | 
H | COCc1cccc(COc2nc3c(Cl)cccc3n2-c2nnnn2C)n1 [Example 72] |  | < 50 | 
